Patent publication US8222260B2, “Substituted 6-anilinopurine derivatives as inhibitors of cytokinin oxidase/dehydrogenase and preparations containing these derivatives” (Univerzita Palackego V Olomouci, priority 2007, dated 2012)
Read-outs that look alike come from different tables or passages of the source.

Columns and labels:
[1] = tested on: promyelocytic leukemia cell line HL-60; test: Calcein AM cytotoxicity assay; type: cell-based, human; conditions: read-out: GI50 HL60
Excerpt: (§1) Absence of toxic effects against mammalian (especially human) cell lines in a wide concentration range is one of the requirements on compounds intended for use in agriculture and medicine. Because toxic compounds negatively influence metabolic processes in cells, many standard cytotoxicity assays are based on measurement of metabolisation rate of various artificial substrates. Resulting product is then quantified e.g. by means of spectrometry. The assays can be easily modified for use in 96-well plates. For evaluation of cytotoxic effect of compounds of this invention, a microtiter assay based on quantification of metabolisation of Calcein AM was used. The assay is widely used in drug screening programs and in chemosensitivity testing. In live cells, Calcein AM is enzymatically hydrolysed and accumulation of resulting calcein is manifested by green fluorescence.
(§2) Mouse cell lines B16-F10 (melanoma) and NIH-3T3 (fibroblasts) were used as well. The cells were maintained in Nunc/Corning 80 cm^2 plastic tissue culture flasks and cultured in cell culture medium (DMEM with 5 g/l glucose, 2 mM glutamine, 100 U/ml penicillin, 100 μg/ml streptomycin, 10% fetal calf serum and sodium bicarbonate).
(§3) The cell suspensions were prepared and diluted according to the particular cell type and the expected target cell density (2.500-30.000 cells per well based on cell growth characteristics) and pippetted (80 μl) into 96-well plates. Inoculates were allowed a pre-incubation period of 24 hours at 37° C. and 5% CO2 for stabilisation. Tested compound was added in total volume of 20 μl of water at time zero. Usually, test compound was evaluated at six 3-fold dilutions. […] All drug concentrations were tested in triplicates. Incubations of cells with the test compounds lasted for 72 hours at 37° C., in 5% CO2 atmosphere and 100% humidity. At the end of incubation period Calcein AM in PBS was added into final concentration of 1 μg/ml. After another 1 hour of incubation fluorescence (FD) was measured with the Labsystem FIA Reader Fluoroscan Ascent (UK). Growth inhibition (GI) was estimated using the following equitation: GI=(mean FDdrug exposed wells−mean FDblank)/(mean FDcontrol wells−mean FDblank)×100%.

[2] = tested on: T-lymphoblastic leukemia cell line CEM; test: Calcein AM cytotoxicity assay; type: cell-based, human; conditions: 72 hours
Excerpt: as §1, §2, §3

[3] = tested on: breast carcinoma cell line MCF-7; test: Calcein AM cytotoxicity assay; type: cell-based, human
Excerpt: as §1, §2, §3

NIH-3T3 (fibroblasts) = test: Calcein AM cytotoxicity assay; type: cell-based, Mouse
Excerpt: as §1, §2, §3

AHK3 = target: T1, AHK3 (Arabidopsis thaliana, UniProt Q9C5U1); test: Activation of cytokinin receptors (E. coli KMI001 beta-galactosidase reporter); type: cell-based; conditions: 28 h incubation; n.a. means no activation
T1 sequence (Q9C5U1 1-1036): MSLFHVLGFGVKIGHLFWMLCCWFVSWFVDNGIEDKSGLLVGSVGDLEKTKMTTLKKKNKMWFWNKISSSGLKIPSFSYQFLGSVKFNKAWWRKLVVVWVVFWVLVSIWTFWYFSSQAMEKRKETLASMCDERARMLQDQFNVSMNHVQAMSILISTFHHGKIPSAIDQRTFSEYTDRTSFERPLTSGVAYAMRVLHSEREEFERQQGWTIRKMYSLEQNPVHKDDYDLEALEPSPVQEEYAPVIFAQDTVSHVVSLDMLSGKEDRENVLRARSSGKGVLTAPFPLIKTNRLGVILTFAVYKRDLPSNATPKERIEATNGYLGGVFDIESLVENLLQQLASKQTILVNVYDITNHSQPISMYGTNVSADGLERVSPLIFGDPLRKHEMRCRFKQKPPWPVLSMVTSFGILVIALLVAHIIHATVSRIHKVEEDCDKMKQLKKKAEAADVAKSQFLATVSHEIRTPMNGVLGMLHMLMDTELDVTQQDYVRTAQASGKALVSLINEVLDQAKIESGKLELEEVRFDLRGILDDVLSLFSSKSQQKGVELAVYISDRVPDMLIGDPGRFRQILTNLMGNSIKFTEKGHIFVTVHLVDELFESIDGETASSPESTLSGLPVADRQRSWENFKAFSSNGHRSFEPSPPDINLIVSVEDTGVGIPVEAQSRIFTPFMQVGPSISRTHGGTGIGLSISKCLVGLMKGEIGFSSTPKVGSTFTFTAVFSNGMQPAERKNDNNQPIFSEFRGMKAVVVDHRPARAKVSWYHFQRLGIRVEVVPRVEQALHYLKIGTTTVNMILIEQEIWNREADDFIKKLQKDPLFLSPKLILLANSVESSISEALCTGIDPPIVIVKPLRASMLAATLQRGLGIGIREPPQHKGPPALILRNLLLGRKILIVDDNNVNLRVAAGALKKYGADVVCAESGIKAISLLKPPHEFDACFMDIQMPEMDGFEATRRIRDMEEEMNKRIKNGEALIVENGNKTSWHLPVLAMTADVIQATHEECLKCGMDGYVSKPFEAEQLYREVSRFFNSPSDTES
Method in brief: (§4)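 E. coli KMI001 carrying the receptor plasmid was grown in M9 + 0.1% casamino acids at 25 °C, diluted 1:600 and treated with compound (stock solutions 10^-7–5×10^-5 M). Supernatant β-galactosidase was read by 4-methylumbelliferyl galactoside hydrolysis (1 h, 37 °C, Na2CO3 stop). EC50 came from dose-response curves, triplicate means.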

CRE1/AHK4 = CRE1/AHK4 (Arabidopsis thaliana, UniProt Q9C5U0); test: as above; type: cell-based; conditions: 17 h incubation; n.a. means no activation
Method in brief: as §4

[4] = tested on: erytroid leukemia cell line K-562; test: Calcein AM cytotoxicity assay; type: cell-based, human; conditions: Homo sapiens, K562, 72 hours
Excerpt: as §1
as §2, with “Following human cell lines were used for routine screening of the compounds: T-lymphoblastic leukemia cell line CEM, promyelocytic leukemia cell line HL-60, erytroid leukemia cell line K-562, breast carcinoma cell line MCF-7, osteosarcoma cell line HOS and melanoma cell line G-361. Mouse” for “Mouse”
(§5) The cell suspensions were prepared and diluted according to the particular cell type and the expected target cell density (2.500-30.000 cells per well based on cell growth characteristics) and pippetted (80 μl) into 96-well plates. Inoculates were allowed a pre-incubation period of 24 hours at 37° C. and 5% CO2 for stabilisation. Tested compound was added in total volume of 20 μl of water at time zero. Usually, test compound was evaluated at six 3-fold dilutions. In routine testing, the highest concentration tested was 166.6 μM. All drug concentrations were tested in triplicates. Incubations of cells with the test compounds lasted for 72 hours at 37° C., in 5% CO2 atmosphere and 100% humidity. At the end of incubation period Calcein AM in PBS was added into final concentration of 1 μg/ml. After another 1 hour of incubation fluorescence (FD) was measured with the Labsystem FIA Reader Fluoroscan Ascent (UK). Growth inhibition (GI) was estimated using the following equitation: GI=(mean FDdrug exposed wells−mean FDblank)/(mean FDcontrol wells−mean FDblank)×100%. The GI50 value, the drug concentration causing 50% reduction of Calcein AM conversion, was calculated from the obtained dose response curves.

[5] = tested on: Rat C6 glioma (ATCC No. CCL107); test: Anti-inflammatory activity: isoproterenol-induced cAMP synthesis (ELISA); type: cell-based; conditions: cAMP after 30 min, induced by (−)-isoproterenol; for IC50: Rattus norvegicus, C6 glioma, 0.5 h, read-out: I50
Procedure: Anti-inflammatory activity of several of the substituted 6-anilinopurine derivatives of this invention was determined; kinetin was also evaluated as a control. Rat C6 glioma (ATCC No. CCL107) was cultivated in monolayer in serum-free chemically defined medium containing Ham's F10/minimal essential medium (1:1 v/v), 2 mM L-glutamine, 1% (v/v) minimal essential medium vitamins (100×), 1% (v/v) minimal essential medium nonessential amino acids (100×), 100 U/ml penicillin, […], and 30 nM sodium selenite. Incubation was performed at 37° C. in a 100% humidified atmosphere. The assays were performed in the logarithmic growth phase at a density of 2.5×10^5 cells/cm^2. Intracellular cAMP synthesis was induced by addition of 5 mM (−)-isoproterenol; various amounts of test compounds were added at the same time as the (−)-isoproterenol. After 30 min incubation, the cellular amount of cAMP was determined using ELISA (cAMP-enzyme immunoassay kit from Amersham). The I50 values were determined from the dose-response curve in duplicate.

[6] = tested on: Amaranthus caudatus cotyledon/hypocotyl explants; test: Amaranthus bioassay (betacyanin content); type: cell-based, Amaranthus caudatus var. atropurpurea; conditions: at the concentration with highest activity, relative to 10^−5 M kinetin
Method in brief: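 Etiolated A. caudatus cotyledon/hypocotyl explants (72 h seedlings, roots removed) incubated 48 h at 25 °C in darkness on medium with phosphate buffer pH 6.8, tyrosine and test compound. Betacyanin extracted in acetic acid, quantified as A537−A620.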

recombinant AtCKX2 = target: T2, recombinant AtCKX2 (Arabidopsis thaliana, UniProt Q9FUJ3); test: Inhibition of cytokinin oxidase/dehydrogenase activity (PMS/MTT microtitre plate assay); type: biochemical; conditions: 30 μM iP as substrate, pH 7.4, 37° C.; means of three replicates; read-out: IC50, inhibition of recombinant AtCKX2
T2 sequence (Q9FUJ3 23-501): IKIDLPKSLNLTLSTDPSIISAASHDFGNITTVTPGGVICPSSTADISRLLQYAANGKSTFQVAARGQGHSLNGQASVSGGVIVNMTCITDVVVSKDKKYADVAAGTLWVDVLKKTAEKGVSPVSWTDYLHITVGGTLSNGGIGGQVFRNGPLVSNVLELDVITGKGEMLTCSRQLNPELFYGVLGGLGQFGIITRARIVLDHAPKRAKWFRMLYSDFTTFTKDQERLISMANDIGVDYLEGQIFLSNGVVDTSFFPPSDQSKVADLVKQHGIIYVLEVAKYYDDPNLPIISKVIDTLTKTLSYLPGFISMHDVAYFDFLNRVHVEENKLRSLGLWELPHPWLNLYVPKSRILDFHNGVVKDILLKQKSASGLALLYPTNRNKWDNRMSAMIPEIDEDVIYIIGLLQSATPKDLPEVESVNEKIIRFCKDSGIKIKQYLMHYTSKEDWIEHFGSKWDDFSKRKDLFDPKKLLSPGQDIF
Procedure: IC50 determinations were done using the assay in microtitre plate. Each well contained 100 μL of PMS/MTT [phenazine methosulfate/3-(4,5-dimethylthiazol-2-yl)-2,5-diphenyltetrazolium bromide] reaction mixture (final concentrations: 0.1 M KH2PO4, pH 7.4, 1 mM MTT, 0.2 mM PMS) containing the tested compound (3×10^−7 M-3×10^−4 M) and 30 μM N^6-isopentenyladenine (iP) as a substrate. 100 μL of cell-free growth medium of S. cerevisiae strain 23344c ura^− harboring the plasmid pYES2-AtCKX2 was directly used as a source of AtCKX2. Plates were incubated in the dark for […] at 37° C. and the enzymatic reaction was stopped by 25 μL of 35% acetic acid. The absorbance at 578 nm was measured using spectrophotometer Tecan. Absorbance of the sample without iP was subtracted.
The IC50 value, the compound concentration that inhibits the enzyme activity to 50%, was calculated from the obtained dose response curves. The values shown in Table 9 are means of three replicates and the entire test was repeated at least twice.

[7] = tested on: cytokinin-dependent tobacco callus Nicotiana tabacum L. cv. Wisconsin 38; test: Tobacco callus biotest (plant cell division); type: cell-based; conditions: at the concentration with highest activity, relative to 10^−5 M kinetin
[8] = tested on: CKX1 overproducing Arabidopsis seedlings; test: CKX1 overproducing Arabidopsis seedlings grown in vitro on MS medium, phenotype reversion; type: in vivo; conditions: in vitro on MS medium containing 0.1 μM compound
[9] = tested on: osteosarcoma cell line HOS; test: Calcein AM cytotoxicity assay; type: cell-based, human; conditions: Homo sapiens, 72 hours
Excerpt: as §1
as §2, with “Following human cell lines were used for routine screening of the compounds: T-lymphoblastic leukemia cell line CEM, promyelocytic leukemia cell line HL-60, erytroid leukemia cell line K-562, breast carcinoma cell line MCF-7, osteosarcoma cell line HOS and melanoma cell line G-361. Mouse” for “Mouse”
as §5

Sequence of CRE1/AHK4 (Q9C5U0 whole entry): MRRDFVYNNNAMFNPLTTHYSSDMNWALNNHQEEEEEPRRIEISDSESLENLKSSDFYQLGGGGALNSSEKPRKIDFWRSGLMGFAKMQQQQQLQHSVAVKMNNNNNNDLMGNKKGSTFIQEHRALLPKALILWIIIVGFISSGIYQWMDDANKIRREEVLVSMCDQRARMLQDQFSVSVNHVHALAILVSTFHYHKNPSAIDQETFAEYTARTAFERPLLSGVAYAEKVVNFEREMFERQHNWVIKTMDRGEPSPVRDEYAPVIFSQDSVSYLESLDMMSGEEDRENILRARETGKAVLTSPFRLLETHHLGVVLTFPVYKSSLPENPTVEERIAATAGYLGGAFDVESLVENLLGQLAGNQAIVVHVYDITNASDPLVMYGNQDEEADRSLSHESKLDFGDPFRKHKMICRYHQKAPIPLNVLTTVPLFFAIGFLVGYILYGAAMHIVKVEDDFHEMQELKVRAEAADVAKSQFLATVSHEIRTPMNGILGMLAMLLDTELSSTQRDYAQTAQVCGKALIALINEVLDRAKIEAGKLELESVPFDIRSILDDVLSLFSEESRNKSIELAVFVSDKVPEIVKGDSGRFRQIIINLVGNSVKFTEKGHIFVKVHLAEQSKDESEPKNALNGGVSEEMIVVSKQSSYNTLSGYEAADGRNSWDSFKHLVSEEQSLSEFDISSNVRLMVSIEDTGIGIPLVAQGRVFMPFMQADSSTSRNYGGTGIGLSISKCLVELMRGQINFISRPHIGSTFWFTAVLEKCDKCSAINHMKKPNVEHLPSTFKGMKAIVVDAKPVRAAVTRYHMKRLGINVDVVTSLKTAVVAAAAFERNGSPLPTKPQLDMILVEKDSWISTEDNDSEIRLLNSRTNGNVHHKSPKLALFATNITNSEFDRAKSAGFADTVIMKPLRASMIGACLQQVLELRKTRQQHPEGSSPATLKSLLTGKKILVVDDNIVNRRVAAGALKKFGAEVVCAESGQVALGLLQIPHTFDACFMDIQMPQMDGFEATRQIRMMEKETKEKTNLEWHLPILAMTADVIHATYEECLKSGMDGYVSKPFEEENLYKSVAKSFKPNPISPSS

C/C(=C\CNc1ncnc2nc[nH]c12)CO [trans-zeatin, reference compound]
GI50 ([1]; 72 hours): > 167 µM | GI50 [2]: > 167 µM | GI50 ([3]; 72 hours, read-out: GI50 MCF7): > 167 µM | GI50 (NIH-3T3 (fibroblasts); 72 hours): > 167 µM | EC50 (AHK3): 2.1 µM | EC50 (CRE1/AHK4): 0.9 µM

Nc1ncnc2nc[nH]c12 [adenine, reference compound]
GI50 ([1]; Homo sapiens, HL-60, 72 hours): > 167 µM | GI50 ([2]; Homo sapiens): > 167 µM | GI50 ([3]; Homo sapiens, MCF7, 72 hours): > 167 µM | GI50 (NIH-3T3 (fibroblasts); Mus musculus, NIH3T3, 72 hours): > 167 µM | GI50 [4]: > 167 µM

Oc1ccccc1Nc1nc(Cl)nc2nc[nH]c12 [Compound 8, 2-chloro-6-(2-hydroxyanilino)purine]
IC50 [5]: 25 µM | Effect (anti-inflammatory activity) [5]: Inhibition | EC50 (AHK3): 31.7 µM

COc1cc(CNc2nc(Cl)nc3nc[nH]c23)cc(OC)c1 [2-chloro-6-(3,5-dimethoxybenzylamino)purine]
IC50 [5]: 11 µM | Effect (anti-inflammatory activity) [5]: Inhibition

Fc1nc(Nc2ccc(Cl)cc2)c2nc[nH]c2n1 [Compound 43]
Activity (%) [10^−5 mol · l^−1 K = 100%] [6]: 102.6% | IC50 (recombinant AtCKX2): 27 µM | Activity (%) [10^−5 mol · l^−1 K = 100%] [7]: 130% | EC50 (AHK3): 27 µM | EC50 (CRE1/AHK4): 39.8 µM

Fc1cccc(Nc2nc(F)nc3[nH]cnc23)c1 [Compound 45]
Activity (%) [10^−5 mol · l^−1 K = 100%] [6]: 105.1% | IC50 (recombinant AtCKX2): 22.1 µM | Activity (%) [10^−5 mol · l^−1 K = 100%] [7]: 127.9% | EC50 (AHK3): 42.1 µM | EC50 (CRE1/AHK4): > 50 µM

c1ccc(CNc2ncnc3nc[nH]c23)cc1 [benzylamino, 6-benzylaminopurine, reference compound]
GI50 ([1]; Homo sapiens, HL-60, 72 hours): > 167 µM | GI50 ([2]; Homo sapiens): > 167 µM | GI50 (NIH-3T3 (fibroblasts); Mus musculus, NIH3T3, 72 hours): > 167 µM | reversion of WT phenotype [8]: appeared only when the compound 12 was present | GI50 [9]: > 167 µM

Nc1nc(Nc2ccc(O)cc2)c2nc[nH]c2n1 [Compound 73]
GI50 ([3]; Homo sapiens, MCF7, 72 hours): > 167 µM | GI50 (NIH-3T3 (fibroblasts); Mus musculus, NIH3T3, 72 hours): > 167 µM | GI50 [9]: > 167 µM | EC50 (AHK3): > 50 µM | EC50 (CRE1/AHK4): > 50 µM

COc1cccc(CNc2nc(Cl)nc3nc[nH]c23)c1 [2-chloro-6-(3-methoxybenzylamino)purine]
IC50 [5]: 7 µM | Effect (anti-inflammatory activity) [5]: Inhibition
